Data taken from patent US8414885B2, “Methods and compositions for treating cancer” (priority 2009, dated 2013).

Assays:
A2058 melanoma cultures = experiment: EtHD-1 cell death with or without autophagy inhibitor; type: cell-based, human; conditions: A2058, ΔPK plus 3-MA, 48 h p.i.
Procedure: (§1) FIG. 14. ΔPK induced autophagy contributes to its ability to cause melanoma cell death. (A) A2058 cells were mock or ΔPK-infected (multiplicity of infection, moi=1.0) with and without the autophagy inhibitor 3-MA and protein extracts were assayed for LC3-I and LC3-II expression by immunoblotting. Data were quantified by densitometric scanning, and results are expressed as LC3-I/LC3-II ratio±s.d. (B). A2058 melanoma cultures were mock or ΔPK-infected (moi=5), cultured in serum-free medium and stained with ethidium homodimer-1 (EtHD-1) at 48 h p.i. Cells were counted in three randomly selected fields (>250 cells) and the mean percentage of staining cells was calculated.
To examine the role of autophagy in ΔPK-induced melanoma cell death, the cultures were mock-infected with PBS or infected with ΔPK in the absence or presence of 3-MA and cell death was determined at 0-72 h p.i. by EtHD-1 staining. ΔPK caused a time-dependent increase in the percentage of EtHD-1+ cells that reached maximal levels at 48 h p.i. (51.1±4.8%,).
A2058 melanoma cultures were mock or ΔPK-infected (moi=0.5), cultured in serum-free medium and stained with ethidium homodimer-1 (EtHD-1) at 48 h p.i. Cells were counted in three randomly selected fields (>250 cells) and the mean percentage of staining cells was calculated.

LC3-I/LC3-II = experiment: Immunoblotting for LC3-I conversion to LC3-II (autophagy); type: cell-based, human; conditions: A2058, 3-MA 5 mM
Procedure: as §1
The role of autophagy in cell death is still controversial. The general consensus is that autophagy is a mechanism that promotes or counteracts cell death depending on the cell type, stimulus and conditions. […] To examine whether autophagy was increased in ΔPK infected cells, we focused on LC3-I conversion to LC3-II which serves as a marker for autophagosome maturation.
A2058 cells were mock and ΔPK-infected (multiplicity of infection, moi=1.0) with and without the autophagy inhibitor 3-MA. Data were quantified by densitometric scanning, and results are expressed as the ratio of the LC3-I/LC3-II ratio±s.d.

SMILES: Cn1cnc(N)c2ncnc1-2 [3-MA, 3-Methyl-adenine]
- percentage of cell death (EtHD-1+) in ΔPK infected cultures in presence of inhibitor (A2058 melanoma cultures): 37.3±5.2%
- effect of inhibitor on LC3-I conversion after ΔPK treatment (LC3-I/LC3-II): reversed LC3-I conversion
